Data: ChEMBL document CHEMBL1165864, “Scavenging activity of aminoantipyrines against hydroxyl radical” (Eur J Med Chem, 2010)
Activity calls are given as the source filed them. The rule behind the calls is not given here.

Assay: Antioxidant activity assessed as hydroxyl radical scavenging activity at 10 mM at pH 7 by fenton reaction
Assay type: functional

| SMILES | Activity |
| --- | --- |
| CNc1c(C)n(C)n(-c2ccccc2)c1=O | Active |
| Cc1c(N)c(=O)n(-c2ccccc2)n1C | Active |
| Cc1c(N(C)C)c(=O)n(-c2ccccc2)n1C | Active |
